This test concerns immortalized human sebocyte cell line, SZ95. The experiment in a line: In vitro assay of inhibition of Lipid Synthesis. Type of test: cell-based. Particulars: SZ95 cells, lipid synthesis induced by 75µM AA, 48h, neutral lipids measured with AdipoRed fluorescence. As for the experimental part: To evaluate the inhibition of lipid synthesis, the immortalized human sebocyte cell line, SZ95 (stablished by Zouboulis, C.C. et al J Invest Dermatol 1999; 113: 1011-20), was treated with arachidonic acid (AA) in presence or absence of compound. Lipids were detected by using a lipid sensing fluorophore.
10k cells were plated in 384 well microtiter plates and incubated at 37 °C and 5% CO2 in DMEM/F12 supplemented with 10% FBS, 1.25ng/ml of rhEGF and GA-1000, using the MicroClime Lids from Labcyte to reduce the edge effect, before of compound and stimulus addition.
After 24h, compounds were dissolved in DMSO 100%. Then the stocks were serial diluted 1/3 in DMSO 100%, and this battery of solutions were diluted 1/10 in culture medium. Later, compounds dissolved in culture media were added over cells, diluting the solutions prepared 1/40 in the final volume of the assay. Then, cells and compounds were preincubated for 30 min at 37 °C and 5% CO2. After this prior incubation, the lipid synthesis was induced by 75µM of AA final solution, preparing a solution 10x in culture media containing a 1.25% of DMSO. Finally, SZ95 treated were incubated for 48h at 37°C and 5% CO2.
Neutral lipids were measured using AdipoRedTM, purchased from Lonza. To do that, cells were washed with PBS and incubated with a solution of AdipoRedTM (final dilution 1/80 in PBS) for 30 min at room temperature. After the staining process, the fluorescence intensity (FI) was quantified using a fluorescence plate reader (excitation 485 nm; emission 535).
Activity of compounds was calculated as % of inhibition considering the maximal fluorescence for AA-stimulated cells and the minimum fluorescence for unstimulated cells as controls.

Consider `CCCCCCCc1ccc(-c2c[nH]c(C(=O)O)c2F)c(Cl)c1` [Example 1, 4-(2-Chloro-4-heptylphenyl)-3-fluoro-1H-pyrrole-2-carboxylic acid], for which the IC50 (Homo sapiens) was < 200 nM.

As to `CCCCCCCc1ccc(-c2c[nH]c(C(=O)O)c2F)c(CC)c1` [Example 2, 4-(2-Ethyl-4-heptylphenyl)-3-fluoro-1H-pyrrole-2-carboxylic acid], the IC50 (Homo sapiens) was < 200 nM.

As to `CCCCCCCCCCCCCc1c[nH]c(C(=O)O)c1F` [Example 3, 3-Fluoro-4-tridecyl-1H-pyrrole-2-carboxylic acid], the IC50 (Homo sapiens) is < 50 nM.

For the molecule `CCCCCCCCC1CCC(c2c[nH]c(C(=O)O)c2F)CC1` (stereo not shown) [Example 4, 3-Fluoro-4-((1r,4s)-4-octylcyclohexyl)-1H-pyrrole-2-carboxylic acid], the IC50 was < 200 nM.

One may read the IC50 as the concentration that gives 50% inhibition.

For the origin of these results see patent EP4014964A1, “TOPICAL FORMULATION” (Almirall S.A., priority 2020, dated 2022).
